Columns and labels:
[1] = biological target: T1, human 5-HT1A receptors (human 5-HT1A/CHO membrane preparation) (Homo sapiens, UniProt P08908); test: 5-HT1A receptor actuation test, [35S]GTPγS binding (Test Example 3); format: biochemical; settings: 10^-5 M test substance; rate of increase in [35S]GTPγS binding, increase due to 10 μM 5-HT taken as 100%
T1 construct: expressed in transfected cells; host or cells: CHO cells (human 5-HT1A/CHO), Geneticin-selected
T1 sequence (P08908 1-422): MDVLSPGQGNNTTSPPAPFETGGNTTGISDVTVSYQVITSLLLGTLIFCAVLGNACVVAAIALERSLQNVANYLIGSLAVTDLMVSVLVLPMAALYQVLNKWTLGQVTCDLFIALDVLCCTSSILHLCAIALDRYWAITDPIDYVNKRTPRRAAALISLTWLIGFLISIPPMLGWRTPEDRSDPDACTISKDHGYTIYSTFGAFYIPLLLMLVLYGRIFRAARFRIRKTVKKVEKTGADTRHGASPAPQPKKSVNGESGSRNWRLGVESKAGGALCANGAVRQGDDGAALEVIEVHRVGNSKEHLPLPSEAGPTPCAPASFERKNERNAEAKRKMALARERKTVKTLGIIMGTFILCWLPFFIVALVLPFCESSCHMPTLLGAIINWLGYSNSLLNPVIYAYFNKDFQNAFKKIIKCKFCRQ
Method: 5-HT1A Receptor Actuation Test
3-1. Cells Used and Preparation of a Membrane Preparation
Human ^5-HT1A receptor expression CHO cells (human 5-HT1A/CHO) were used in the experiment. The cells were cultured on F12 containing 10% FCS, 500 μg/ml Geneticin and 100 U/ml penicillin-100 μg/ml streptomycin (all available from GIBCO) in a 5% CO2 incubator, and a membrane preparation was prepared according to the method^3) of A. Newman et al. In detail, cells peeled and collected by the use of buffer solution A (20 mM HEPES, 5 mM MgSO4) were homogenized in a Teflon homogenizer, followed by centrifugation (50,000×g, 30 min, 4° C.). The precipitate was re-suspended in a suitable volume of buffer solution A and stored at −80° C. until use The amount of proteins in the membrane preparation was determined with Dye Reagent Concentrate (BIO-RAD) by using Albumin Bovine (SIGMA) as a standard substance.
Binding of [^35S]GTPγS to human 5-HT1A receptors was measured by the use of the above-mentioned membrane preparation according to the method^3) of Newman et al. In detail, 0.05 nM of [^35S]GTPγS (E. I. du Pont de Nemours & Co. NEN) and a definite amount (about 50 μg/tube) of the membrane preparation were added to buffer solution B (20 mM HEPES, 3 mM MgSO4, 3 μM GDP, 1 mM DTT) containing 10^−5M of each test substance, and the resulting liquid for reaction having a total volume of 1 ml was incubated at 22° C. for 20 minutes. After completion of the reaction, the reaction mixture was diluted with 5 ml of ice-cooled buffer solution B, and the dilution was rapidly filtered by suction at a low pressure through glass fiber filter paper (Whatman, GF/B) to terminate the reaction. The glass fiber filter paper was washed twice with the same buffer solution as above and placed in a vial, and 4 ml of ACS-II was added thereto. The radioactivity of [^35S]GTPγS on the filter paper was measured with a liquid scintillation counter. The amount of [^35S]GTPγS specifically bound was calculated from the amount of [^35S]GTPγS non-specifically bound in the presence of 10 μM of GTPγS (Sigma). The 5-HTLA receptor actuating activity of each test substance was expressed in terms of the rate of increase in [^35S]GTPγS binding by taking an increase in [^35S]GTPγS binding due to 10 μM of 5-HT as 100%.

[2] = biological target: T2, [3H]citalopram binding site, cerebral cortex membrane preparation (serotonin reuptake) (Rattus norvegicus, UniProt P31652); test: Screening test using [3H]citalopram binding (Test Example 1); settings: 0.7 nM [3H]citalopram, test agent concentration not given, read-out: Rate of inhibition of [^3H] citalopram binding (%)
T2 construct: 146 μl of the cerebral cortex membrane preparation (72 μg/well in terms of protein); from tissue; host or cells: male rat cerebral cortex membrane preparation
Method: Screening Test Using [^3H[Citalopram Binding
1-1. Preparation of a Cerebral Cortex Membrane Preparation
The membrane preparation was prepared according to the method^1) of D'amato et al. In detail, after a male rat was decapitated, the whole brain was immediately removed and the cerebral cortex was separated therefrom under ice-cooling. A buffer solution (50 mM Tris-HCl (pH=7.4), 120 mM NaCl, 5 mM KCl) was added to the cerebral cortex in an amount of 2.5 times the wet weight of the cerebral cortex, followed by homogenization in an ice bath by the use of a Teflon-glass homogenizer. The homogenate was centrifuged at 4° C. and 45,000×g for 10 minutes, and the resulting precipitate was dispersed in an ice-cooled buffer solution (50 mM Tris-HCl (pH=7.4), 120 mM NaCl, 5 mM KCl) by the use of Hiscotron™, followed by centrifugation at 4° C. and 45,000×g for 10 minutes. The resulting precipitate was re-suspended and the washing procedure was repeated. The membrane preparation thus obtained was suspended in the same buffer solution as described above, and then subjected to cryopreservation at −80° C.
1-2 Receptor Binding Experiment
[^3H]citalopram binding was measured according to the method^1) of D'amato et al. In detail, 50 μl of a dilution (final concentration: 0.7 nM) of [^3H]citalopram with 50 mM Tris-HCl (pH=7.4) buffer containing 120 mM NaCl and 5 mM KCl, 146 μl of the cerebral cortex membrane preparation (72 μg/well in terms of protein) and 4 μl of a solution of a test agent in dimethyl sulfoxide were mixed to make a total volume of 200 μl. The resulting liquid was allowed to react at room temperature for 60 minutes and then rapidly filtered by suction at a low pressure through glass fiber filter paper. The glass fiber filter paper was washed twice with 250 μl of the same buffer solution as above and then transferred to a glass vial containing 4 ml of ACS-II (Amersham), and the radio-activity remaining on the filter paper was measured with a liquid scintillation counter.
The amount of [^3H]citalopram bound in the presence of 100 μM 5-HT was taken as the amount of [^3H]citalopram non-specifically bound.
(§1) Rate of binding inhibition was calculated by the following equation:
Rate of binding inhibition (%)=100−100×{[amount of [^3H]citalopram bound in the presence of test agent]−[amount of [^3H]citalopram bound in the presence of 100 μM 5-HT]/[amount of [^3H]citalopram bound in the absence of test agent]−[amount of [^3H]citalopram bound in the presence of 100 μM 5-HT]}

[3] = biological target: T3, serotonin 1A receptors ([3H]8-OH-DPAT binding, hippocampus membrane preparation) (Rattus norvegicus, UniProt P19327); test: [3H]8-OH-DPAT binding test (Test Example 2); settings: 2 nM [3H]8-OH-DPAT, test agent concentration not given, read-out: Rate of inhibition of [^3H] 8-OH-DPAT binding (%)
T3 construct: 146 μl of the hippocampus membrane preparation (80 μg/tube in terms of protein); from tissue; host or cells: male rat hippocampus membrane preparation
T3 sequence (P19327 1-422): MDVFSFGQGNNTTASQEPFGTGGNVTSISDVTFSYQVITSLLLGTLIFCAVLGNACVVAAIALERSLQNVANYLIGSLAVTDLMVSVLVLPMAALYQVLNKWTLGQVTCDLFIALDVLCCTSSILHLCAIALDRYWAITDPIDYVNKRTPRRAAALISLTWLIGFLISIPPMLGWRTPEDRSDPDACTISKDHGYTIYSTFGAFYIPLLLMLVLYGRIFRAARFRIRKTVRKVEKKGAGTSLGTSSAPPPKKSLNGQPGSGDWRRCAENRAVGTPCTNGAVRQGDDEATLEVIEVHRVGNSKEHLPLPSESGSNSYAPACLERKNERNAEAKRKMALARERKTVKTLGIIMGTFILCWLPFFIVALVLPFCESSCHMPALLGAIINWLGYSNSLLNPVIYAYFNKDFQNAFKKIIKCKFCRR
Method: [^3H]18-OH-DPAT Binding Test
The test was carried out according to the method^2) of Hall M. D. et al. After pre-breeding for about 1 week, a male rat was decapitated and the brain was immediately removed. The hippocampus was separated from the brain on ice, and 50 mM Tris-HCl (pH=7.4) was added to the hippocampus in an amount of 40 times the wet weight of the hippocampus, followed by homogenization (3 min, 1 stroke/min) in an ice bath by the use of a Teflon-glass homogenizer. Then, the homogenate was centrifuged (4° C.) at 40,000×g for 10 minutes. The resulting precipitate was dispersed in an ice-cooled buffer solution (50 mM Tris-HCl (pH=7.4)) by the use of Hiscotron, followed by centrifugation (4° C.) at 40,000×g for 10 minutes. Moreover, the resulting precipitate was re-suspended and the washing procedure was repeated once. The precipitate thus obtained was dispersed in an ice-cooled buffer solution (50 mM Tris-HCl (pH=7.4)) by the use of Hiscotron™, and the resulting dispersion was incubated at 37° C. for 1 hour and then centrifuged (4° C.) at 40,000×g for 10 minutes. Furthermore, the resulting precipitate was re-suspended and the washing procedure was repeated once. The resulting membrane preparation was suspended in the same buffer solution as described above, and then subjected to cryopreservation at −80° C.
Measurement was carried out by using a liquid for reaction obtained by adding 50 μl of [^3H]8-OH-DPAT (final concentration: 2 nM), 4 μl of a solution of a test agent and 146 μl of the hippocampus membrane preparation (80 μg/tube in terms of protein) to a buffer solution containing 50 mM Tris-HCl (pH=7.4) and 4 mM CaCl2 to make a total volume of 200 μl. The liquid for reaction was allowed to react at room temperature for 30 minutes and then rapidly filtered by suction at a low pressure through glass fiber filter paper. The glass fiber filter paper was washed twice with 250 μl of a buffer solution and then added to a glass vial containing 4 ml of ACS-II (Amersham), and the radioactivity bound to receptors and remaining on the filter paper was measured with a liquid scintillation counter. The amount of [^3H]8-OH-DPAT bound in the presence of 1 μM of 8-OH-DPAT was taken as the amount of [^3H]8-OH-DPAT non-specifically bound.
as §1
Rate of binding inhibition (%)=100−100×{[amount of [^3H]8-OH-DPAT bound in the presence of test substance]−[amount of [^3H]8-OH-DPAT bound in the presence of 1 μM 8-OH-DPAT]/[amount of [^3H]8-OH-DPAT bound in the absence of test substance]−[amount of [^3H]8-OH-DPAT bound in the presence of 1 μM 8-OH-DPAT]}

T2 sequence (P31652 whole entry): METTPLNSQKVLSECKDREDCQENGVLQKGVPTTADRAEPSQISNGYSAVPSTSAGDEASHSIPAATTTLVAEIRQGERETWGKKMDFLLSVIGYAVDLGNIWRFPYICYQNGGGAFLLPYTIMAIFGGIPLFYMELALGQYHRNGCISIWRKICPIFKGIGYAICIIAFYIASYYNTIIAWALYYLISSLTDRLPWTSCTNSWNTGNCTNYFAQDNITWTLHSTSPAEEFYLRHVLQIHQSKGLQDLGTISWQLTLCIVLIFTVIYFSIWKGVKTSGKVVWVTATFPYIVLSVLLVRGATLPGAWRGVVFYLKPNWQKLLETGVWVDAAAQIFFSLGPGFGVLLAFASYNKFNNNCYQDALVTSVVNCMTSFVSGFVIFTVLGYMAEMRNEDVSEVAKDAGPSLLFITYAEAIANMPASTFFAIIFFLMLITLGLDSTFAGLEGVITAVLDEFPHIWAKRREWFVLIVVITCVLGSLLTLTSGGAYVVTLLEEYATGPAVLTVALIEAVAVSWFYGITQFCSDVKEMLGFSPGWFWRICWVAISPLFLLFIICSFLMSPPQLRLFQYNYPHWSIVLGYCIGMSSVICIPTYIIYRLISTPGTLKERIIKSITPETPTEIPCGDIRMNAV

Row | SMILES | 5-HT14 receptor actuating activity (%) [1] [%] | inhibition [2] [%] | inhibition [3] [%]
1 | COc1ccc(Br)c(CC2CCN(CCc3ccccc3)CC2)c1 [Example 11, N-phenethyl-4-(2-bromo-5-methoxybenzyl)-piperidine] | 32 | 82 | 96
2 | COc1ccc(Br)c(CC2CCN(Cc3cccc(C(=O)NCc4ccccc4)c3)CC2)c1 [Example 12] | 19 | 100 | 98
3 | NC(=O)c1cccc(CCN2CCC(Cc3ccccc3Br)CC2)c1 [Example 49] | 48 | 98 | 47
4 | COc1ccc(Br)c(CC2CCN(CCc3cccc4ccccc34)CC2)c1 [Example 54, N-(2-(1-naphthyl)ethyl)-4-(2-bromo-5-methoxybenzyl)piperidine] |  | 73 | 92
5 | COc1ccc(Cl)c(CC2CCN(CCCN3C(=O)c4ccccc4C3=O)CC2)c1 [Example 82, N-(3-phthaliminopropyl)-4-(2-chloro-5-methoxybenzyl)piperidine] | 49 | 100 | 72
6 | COc1ccc(Br)c(CC2CCN(CCc3cccnc3)CC2)c1 [Example 103, N-(2-(3-pyridyl)ethyl)-4-(2-bromo-5-methoxybenzyl)piperidine] | 52 | 91 | 94
7 | CCOc1ccc(Br)c(CC2CCN(CCc3ccccc3Cl)CC2)c1 [Example 169, N-(2-(2-chlorophenyl)ethyl)-4-(2-bromo-5-ethoxybenzyl)piperidine] | 48 | 86 | 74

Reference: patent US6787560B2, “Serotonin reuptake inhibitor” (Sumitomo Pharmaceuticals Company Limited, priority 2000, dated 2004)
